From patent US6274568A, “Compounds for altering cell surface sialic acids and methods of use therefor” (priority 1999, dated 2001)

System: NG108-15 cells
Assay: Uptake of mannosamine precursors and conversion to sialic acids (precursor pool, gangliosides, glycoproteins) in NG108-15 cells, HPLC
Type: cell-based, mouse neuroblastoma/rat glioma hybrid
Method: Cells were harvested using hypertonic Ca^2+ - and Mg^2+ -free phosphate-buffered saline containing 1 mM EDTA, collected by centrifugation, and homogenized in ice-cold water using a Potter-Elvehjem glass/Teflon homogenizer. Methanol (2.6 volumes) was added, the suspension mixed and brought to ambient temperature, then chloroform (1.3 volumes, based on the original homogenate) was added and the suspension mixed vigorously. The suspension was centrifuged 30 min at 2,000×g. After collecting the supernatant, the pellet (containing precipitated proteins) was resuspended in water or concentrated ammonium hydroxide and a portion was used for protein assay (BCA, Pierce, Rockford, Ill.). The supernatant was partitioned by adjusting the chloroform-methanol-water ratio to 4:8:5.6 by addition of water, mixing thoroughly, and centrifuging as above. The upper phase was collected and a portion was subjected to reverse phase chromatography, using Sep-Pak C18 cartridges (Waters, Milford, Mass.), to isolate gangliosides (Schnaar, Methods Enzymol. 230:371, 1994).
To quantify and identify sialic acids, a portion of resolublized protein, organic/aqueous soluble pool, or reverse-phase purified gangliosides was evaporated to dryness in a 500-μl polypropylene tube and 20 μl of 0.1 M HCl/0.25 M NaCl was added. One Ampliwax bead (Perkin Elmer Corp, Foster City, Calif.) per reaction was added to block evaporation, and the sample hydrolyzed for 3 h at 80° C. Released sialic acids were analyzed by injecting an aliquot (1-10 μl) onto a Dionex high pressure liquid chromatography system (Dionex Corporation, Sunnyvale, Calif.) using a HPIC-AS6 column and a pulsed amperometric detector. Elution solutions were: A, 0.75 mM NaOH; B, 200 mM NaOH; and C, 400 mM sodium acetate in 50 mM NaOH. NeuAc and NeuPr were resolved by elution with 40% A, 50% B, 10% C for 15 min at 1 ml/min. NeuGc was resolved in separate injections using step gradient elution: 0-1.8 min, 18% A, 50% B, 32% C; 2-10 min, 40% B, 60% C. Sialic acids were identified by comparison of their elution time with those of standard NeuAc, NeuPr and NeuGc and were quantified in comparison to a standard curve of commercial NeuAc (for NeuAc and NeuPr) or NeuGc.
To confirm that the quantified peaks represented sialic acids, 10 μl of acid hydrolysates were treated with 1 μl of 1 M sodium phosphate (pH 7.2) and 10 μl of 0.1 M NaOH. Neutralized samples were incubated at 37° C. for 2 h with or without 0.9 U of N-acetylneuraminic acid aldolase (Sigma), 32 μM NADH and 0.1 μg lactate dehydrogenase. Sialic acid content in the ganglioside and glycoprotein fractions is expressed per mg of total cell protein. Precursor pool sialic acid (sialic acid plus CMP-sialic acid) was calculated by subtracting the ganglioside value from the organic/aqueous pool value, both expressed per mg of cell protein.
Sialic acid is biosynthesized from the precursor sugar N-acetylmannosamine (FIG. 2). In the present invention, sialic acids are converted on live neuronal cells from NeuAc, which is a key determinant for MAG binding, to NeuGc, which is non-permissive for MAG binding. A potential NeuGc precursor, N-glycolylmannosamine monoacetate (ManNGcMA, FIG. 1, R1 =H) was tested for its ability to generate altered sialic acids in neuronal and non-neuronal cells. N-propanoylmannosamine (ManNPr) and other N-acyl mannosamine derivatives have been used to modify glycoprotein associated sialic acids to the corresponding N-acylneuraminic acid. N-propanoyl-mannosamine (ManNPr), was used as a positive control. […] Cell pellets were fractioned into lipid associated, protein associated, and intracellular (lipid and cytoplasmic which may consist of oligosaccharide-bound, free, or CMP-activated sialic acid) sialic acids and hydrolyzed to release sialic acid. The hydrolyzed samples were then analyzed by HPLC to determine sialic acid content. […]

[1] = 1 mM, 48 h, listed as ManNGc-OAc
[2] = 1 mM, longer incubation (up to 144 h)

CC(=O)OCC(=O)N[C@@H]1C(OC(C)=O)O[C@H](COC(C)=O)[C@@H](OC(C)=O)[C@@H]1OC(C)=O (stereo partly drawn) [ManNGcPA, N-glycolylmannosamine pentaacetate]
conversion of ganglioside sialic acids to the NeuGc form (0.02 mM, 48 h): ~50%
conversion to the NeuGc form relative to 5 mM ManNGcMA (0.1 mM ManNGcPA vs 5 mM ManNGcMA, 48 h): ≈ 2 fold
glycoprotein sialic acids as NeuGc (0.1 mM, 48 h): 19.8%
intracellular sialic acid in the form of NeuGc (0.1 mM, 48 h): 20.6%
total lipid associated sialic acid as NeuGc (0.1 mM, 48 h): 17%
protein sialic acid, average over the experiment (mean±S.D.) (0.25 mM): 3.8±1.2 nmol/mg protein
total ganglioside sialic acid, average over the experiment (mean±S.D.) (0.25 mM): 3.2±0.7 nmol/mg total cell protein
glycoconjugate sialic acid in the NeuGc form (0.25 mM or 1 mM, 96 h): > 70%
reversal of the conversion on withdrawal of the precursor (0.25 mM, 24 h of chase): partial reversal of the conversion
conversion of NeuAc to NeuGc in gangliosides (0.25 mM, 48 h): > 70%
conversion of NeuAc to NeuGc in glycoproteins (0.25 mM, 96 h, relative to >70% in gangliosides): a similar conversion in glycoproteins
conversion from NeuAc to NeuGc (precursor pool) (1 mM, 48 h): 82%
intracellular sialic acid in the form of NeuGc (1.0 mM, 48 h): 76.6%
ganglioside (lipid associated) sialic acid as NeuGc [1]: 51.5%
glycoprotein (protein associated) sialic acid as NeuGc [1]: 47%
glycoconjugate sialic acid in the NeuGc form (1 mM, 144 h): 80%
ganglioside sialic acid as NeuGc [2]: ≈ 80%
glycoprotein sialic acid as NeuGc [2]: 60-70%
sialic acid precursor pool in the NeuGc form (1 mM, within 24 h (remained high up to 144 h)): > 80%
sialic acid precursor pool size (0.1 or 1.0 mM ManNGcPA, or 5 mM ManNGcMA, 48 h): none of these treatments significantly altered the sialic acid precursor pool size
change in lipid or protein associated sialic acid compared to DMSO treated control (0.1 or 1.0 mM, 48 h): no significant decrease in cell viability, or change in lipid or protein associated sialic acid
total ganglioside sialic acid level (0.1 or 1.0 mM, 48 h): not significantly altered
total glycoprotein sialic acid level (0.1 or 1.0 mM, 48 h): not significantly altered
increase in potency due to peracetylation (ManNGcPA vs ManNGcMA, 48 h): 100 fold
